Format in all cases: cell-based, human
Experiment [1] has as its system A375 melanoma cells (B-Raf V600E mutation). The experiment can be described thus: A375 (A375_P-ERK) cell activity / cell growth inhibition assay. The note with it: A375 cells (text: A375_P-ERK).
The test system of experiment [2] is COLO205 colon adenocarcinoma cells (B-Raf V600E mutation). The experiment in a line: COLO205 cell growth inhibition assay (ATPlite). On the procedure:
Compounds are assessed in a variety of cell based assays. For example human cell lines with B-RafV600E mutation (A375 melanoma, SKMEL3 melanoma, and COLO205 colon adenocarcinoma), as well as tumorigenic cell lines with wild-type B-RAF (SW620 colon adenocarcinoma) or with Ras mutations (SKMEL2 melanoma and IPC298 melanoma).
On day 1, cells are counted, then centrifuged in a conical tube for 5 minutes at 1000 rpm.
On day 2, compound at a maximum concentration of 5 mM is serially diluted 1:3 (e.g. 10 μL with 30 μL dimethyl sulfoxide) for a total of 8 point titration with DMSO as a control. A 1 μL aliquot of each dilution point and control is added to 249 μL growth media and 50 μL is added to a well containing cells, providing 10 μM compound at the maximum concentration point. The cells are incubated for 3 days at 37° C. in 5% CO2.
ATPlite is added 25 μL to each well, shake for 2 minutes, and the cells are incubated at room temperature for 10 minutes, then luminescence is read on Safire reader. The measured luminescence correlates directly with cell number, such that the reading as a function of compound concentration is used to determine the IC50 value.

The test system of experiment [3] is IPC-298 cells, phosphorylated ERK. The experiment can be described thus: IPC-298_P-ERK cell activation assay (phosphorylated ERK, AlphaScreen). To be noted: P-ERK activation, one hour treatment. On the procedure: B9 is a squamous cell carcinoma cell line expressing activated HRAS that was isolated from a DMBA/TPA-induced mouse model of skin carcinogenesis (Stoler, et al. The Journal of Cell Biology, 1993, 122(5), 1103-17). IPC-298 is a human melanoma cell line that expresses activated NRAS (Aubert, et al. International Journal of Cancer, 1993, 54(5), 784-92). To determine whether compounds induce phosphorylated ERK and MEK, cells are plated in a 96-well dish and treated with an 8-point titration of compound for one hour at 37° C. The media is then removed and the cells are incubated with lysis buffer containing protease and phosphatase inhibitors. Phosphorylated ERK and MEK in the resulting lysates is detected using AlphaScreen™ technology. To detect phosphorylated ERK, cell lysates are incubated with streptavidin-coated donor beads, anti-mouse IgG acceptor beads, a biotinylated anti-ERK1/2 rabbit antibody, and a mouse antibody that recognizes ERK1/2 only when it is phosphorylated on Thr202 and Tyr204. […] When ERK is phosphorylated, both antibodies can bind the same protein, bringing the donor and acceptor beads into close proximity, producing a signal that can be measured at 580 nm. MEK phosphorylation is detected using a similar approach, only with antibodies directed against total MEK1/2 and MEK1/2 that is phosphorylated at Ser217 and Ser221.

Setting [4] is: Homo sapiens, A-375, compounds known in the art.
The mark [5] stands for this setting: Homo sapiens, COLO 205, compounds known in the art.

Molecules are shown by their SMILES. Where two headings read alike, the source gives them in different places.

In the case of `COc1ncc(-c2cnc3[nH]cc(C(=O)c4c(F)ccc(NS(=O)(=O)c5cc(F)ccc5F)c4F)c3c2)cn1`, the IC50 was less than 0.5 µM in experiment [1] (setting [4]) and less than 1 µM in experiment [2] (setting [5]).

For the molecule `COc1ncc(-c2cnc3[nH]cc(C(=O)c4c(F)ccc(NS(=O)(=O)c5ccccc5F)c4F)c3c2)cn1`, the IC50 is less than 0.5 µM in experiment [1] (setting [4]) and less than 1 µM in experiment [2] (setting [5]).

As to `CCCS(=O)(=O)Nc1ccc(F)c(C(=O)c2c[nH]c3ncc(Cl)cc23)c1F`, the IC50 in experiment [1] (setting [4]) is less than 0.8 µM; in experiment [2] (setting [5]), less than 1 µM.

Turning to `O=C(c1c(F)ccc(NS(=O)(=O)N2CCCC2)c1F)c1c[nH]c2ncc(I)cc12` [P-0024], the results for the IC50 in experiment [1] and in experiment [2] were less than 1 µM and greater than 1 µM, respectively. The same molecule came in with an EC50 in experiment [3] greater than 10 µM.

Take `CN(C)S(=O)(=O)Nc1cccc(C(=O)c2c[nH]c3ncc(-c4ccc(C#N)cc4)cc23)c1F` [P-0027]: the concentration for half-maximal inhibition (IC50) in experiment [1] (Homo sapiens, A-375) is less than 1 µM; in experiment [2] (Homo sapiens, COLO 205) it was less than 1 µM.

In experiment [1] (Homo sapiens, A-375), `CCN(C)S(=O)(=O)Nc1ccc(F)c(C(=O)c2c[nH]c3ncc(-c4cncs4)cc23)c1F` [P-0315, 5-[3-[3-[[ethyl(methyl)sulfamoyl]amino]-2,6-difluoro-benzoyl]-1H-pyrrolo[2,3-b]pyridin-5-yl]thiazole] gave an IC50 of less than 1 µM.

The molecule `CCN(C)S(=O)(=O)Nc1ccc(F)c(C(=O)c2c[nH]c3ncc(-c4csc(C(C)(C)O)n4)cc23)c1F` [P-0316, 4-[3-[3-[[ethyl(methyl)sulfamoyl]amino]-2,6-difluoro-benzoyl]-1H-pyrrolo[2,3-b]pyridin-5-yl]-2-(1-hydroxy-1-methyl-ethyl)thiazole] returned an IC50 in experiment [1] (Homo sapiens, A-375) of less than 1 µM.

Consider `CCN(C)S(=O)(=O)Nc1ccc(F)c(C(=O)c2c[nH]c3ncc(-c4ccc(OC)nn4)cc23)c1F` [P-0317, 3-[3-[[ethyl(methyl)sulfamoyl]amino]-2,6-difluoro-benzoyl]-5-(6-methoxypyridazin-3-yl)-1H-pyrrolo[2,3-b]pyridine], for which the IC50 in experiment [1] (Homo sapiens, A-375) was less than 1 µM.

On to `O=C(c1c(F)ccc(NS(=O)(=O)N2CCCC2)c1F)c1c[nH]c2ncc(-c3cc(N4CCOCC4)ncn3)cc12` [P-0318, N-[2,4-difluoro-3-[5-(6-morpholinopyrimidin-4-yl)-1H-pyrrolo[2,3-b]pyridine-3-carbonyl]phenyl]pyrrolidine-1-sulfonamide], for which, in experiment [1] (Homo sapiens, A-375), the IC50 was less than 1 µM.

In turn, `O=C(c1cccc(NS(=O)(=O)N2CCCC2)c1F)c1c[nH]c2ncc(-c3cc(N4CCOCC4)ncn3)cc12` [P-0321, N-[2-fluoro-3-[5-(6-morpholinopyrimidin-4-yl)-1H-pyrrolo[2,3-b]pyridine-3-carbonyl]phenyl]pyrrolidine-1-sulfonamide] registered an IC50 in experiment [1] (Homo sapiens, A-375) of less than 1 µM.

In experiment [1] (Homo sapiens, A-375), `CN1CCN(c2cc(-c3cnc4[nH]cc(C(=O)c5cccc(NS(=O)(=O)N6CCCC6)c5F)c4c3)ncn2)CC1` [P-0322, N-[2-fluoro-3-[5-[6-(4-methylpiperazin-1-yl)pyrimidin-4-yl]-1H-pyrrolo[2,3-b]pyridine-3-carbonyl]phenyl]pyrrolidine-1-sulfonamide] had an IC50 of less than 1 µM.

Regarding `CN1CCN(c2cccc(-c3cnc4[nH]cc(C(=O)c5cccc(NS(=O)(=O)N6CCCC6)c5F)c4c3)n2)CC1` [P-0324, N-[2-fluoro-3-[5-[6-(4-methylpiperazin-1-yl)-2-pyridyl]-1H-pyrrolo[2,3-b]pyridine-3-carbonyl]phenyl]pyrrolidine-1-sulfonamide], in experiment [1] (Homo sapiens, A-375), the IC50 is less than 1 µM.

For `COc1ccnc(-c2cnc3[nH]cc(C(=O)c4cccc(NS(=O)(=O)N5CCCC5)c4F)c3c2)n1` [P-0325, N-[2-fluoro-3-[5-(4-methoxypyrimidin-2-yl)-1H-pyrrolo[2,3-b]pyridine-3-carbonyl]phenyl]pyrrolidine-1-sulfonamide], in experiment [1] (Homo sapiens, A-375), the IC50 is less than 1 µM.

In turn, `Cc1ccnc(-c2cnc3[nH]cc(C(=O)c4cccc(NS(=O)(=O)N5CCCC5)c4F)c3c2)n1` [P-0326, N-[2-fluoro-3-[5-(4-methylpyrimidin-2-yl)-1H-pyrrolo[2,3-b]pyridine-3-carbonyl]phenyl]pyrrolidine-1-sulfonamide] gave an IC50 in experiment [1] (Homo sapiens, A-375) greater than 1 µM.

Turning to `O=C(c1cccc(NS(=O)(=O)N2CC[C@@H](F)C2)c1F)c1c[nH]c2ncc(-c3cnc(C4CC4)nc3)cc12` [P-0327, (3R)—N-[3-[5-(2-cyclopropylpyrimidin-5-yl)-1H-pyrrolo[2,3-b]pyridine-3-carbonyl]-2-fluoro-phenyl]-3-fluoro-pyrrolidine-1-sulfonamide], the IC50 in experiment [1] (Homo sapiens, A-375) is less than 1 µM.

The molecule `CNS(=O)(=O)Nc1ccc(F)c(C(=O)c2c[nH]c3ncc(-c4cnc(C5CC5)nc4)cc23)c1F` [P-0334, [5-(2-cyclopropylpyrimidin-5-yl)-1H-pyrrolo[2,3-b]pyridin-3-yl]-[2,6-difluoro-3-(methylsulfamoylamino)phenyl]methanone] gave an IC50 in experiment [1] (Homo sapiens, A-375) greater than 1 µM.

Take `CCNS(=O)(=O)Nc1ccc(F)c(C(=O)c2c[nH]c3ncc(-c4cnc(C5CC5)nc4)cc23)c1F` [P-0335, [5-(2-cyclopropylpyrimidin-5-yl)-1H-pyrrolo[2,3-b]pyridin-3-yl]-[3-(ethylsulfamoylamino)-2,6-difluoro-phenyl]methanone]: the 50% inhibitory concentration (IC50) in experiment [1] (Homo sapiens, A-375) was less than 1 µM.

Regarding `CCC(C)S(=O)(=O)Nc1ccc(F)c(C(=O)c2c[nH]c3ncc(-c4ccc(Cl)cc4)cc23)c1F` (stereo not drawn) [P-0337, N-[3-[5-(4-chlorophenyl)-1H-pyrrolo[2,3-b]pyridine-3-carbonyl]-2,4-difluoro-phenyl]butane-2-sulfonamide], the IC50 in experiment [1] (Homo sapiens, A-375) was greater than 1 µM.

On to `O=C(c1c(F)ccc(NS(=O)(=O)N2CC[C@@H](F)C2)c1F)c1c[nH]c2ncc(-c3cnc(C4CC4)nc3)cc12` [P-0338, (3R)—N-[3-[5-(2-cyclopropylpyrimidin-5-yl)-1H-pyrrolo[2,3-b]pyridine-3-carbonyl]-2,4-difluoro-phenyl]-3-fluoro-pyrrolidine-1-sulfonamide], for which the concentration for half-maximal inhibition (IC50) in experiment [1] (Homo sapiens, A-375) was less than 1 µM.

As for `O=C(c1c(F)ccc(NS(=O)(=O)N2CCC(F)C2)c1F)c1c[nH]c2ncc(-c3cnc(C4CC4)nc3)cc12` (stereo not drawn) [P-0339, N-[3-[5-(2-cyclopropylpyrimidin-5-yl)-1H-pyrrolo[2,3-b]pyridine-3-carbonyl]-2,4-difluoro-phenyl]-3-fluoro-pyrrolidine-1-sulfonamide], the IC50 in experiment [1] (Homo sapiens, A-375) is less than 1 µM.

The molecule `CN(CC(F)(F)F)S(=O)(=O)Nc1ccc(F)c(C(=O)c2c[nH]c3ncc(-c4cnc(C5CC5)nc4)cc23)c1F` [P-0340, 5-(2-cyclopropylpyrimidin-5-yl)-3-[2,6-difluoro-3-[[methyl(2,2,2-trifluoroethyl)sulfamoyl]amino]benzoyl]-1H-pyrrolo[2,3-b]pyridine] registered an IC50 in experiment [1] (Homo sapiens, A-375) of less than 1 µM.

The record behind these values is patent US11337976B2 (Plexxikon Inc., priority 2011, dated 2022).
